The values below come from patent US6204026A, “Detection of M. tuberculosis complex via reverse transcriptase SDA” (priority 1997, dated 2001).

Bounds are passed on as bounds.

The assay concerns M. tuberculosis. Type of assay: cell-based, Mycobacterium tuberculosis.

As for `NNC(=O)c1ccncc1` [INH, Isoniazid], the “time of exposure within which changes in α-antigen mRNA were detected” value was at most 24 h.
`CO[C@H]1/C=C/O[C@@]2(C)Oc3c(C)c(O)c4c(O)c(c(/C=N/N5CCN(C)CC5)c(O)c4c3C2=O)NC(=O)/C(C)=C\C=C\[C@H](C)[C@H](O)[C@@H](C)[C@@H](O)[C@@H](C)[C@H](OC(C)=O)[C@@H]1C` [RIF, rifampin]: the “decline in detectable α-antigen mRNA, compared with INH-treated cultures” value is recorded as “more rapid” and the “time of exposure within which changes in α-antigen mRNA were detected” value is at most 24 h.
